Assays:
Type in all cases: in vivo, C57BL/6J mice
[1] = test system: neural retina mRNA levels; test: Quantitative PCR of mRNA changes in the neural retina; settings: 1 week after injection
Method: Quantitative PCR was used to evaluate mRNA changes in the neural retinas of mice fed with D-DHA or DHA for 4 weeks. Cell-type specific, iron regulating, antioxidant, and inflammation related genes were evaluated at 1 week after iron or saline injections. The mRNA levels of the rod-specific gene rhodopsin (Rho), cone-specific gene cone opsin1 medium wave sensitive and short wave sensitive (Opn1mw and Opn1sw) were measured to assess the stress and differentiation of rod and cone photoreceptors. […] In contrast, there was no change in these mRNAs in the neural retinas of D-DHA/IVT iron mice relative to IVT saline controls (FIG. 9). The mRNA levels of transferrin receptor (Tfrc) which are inversely related to intracellular iron levels, can be used as an indicator of intracellular iron levels. […] These two groups had slightly different Tfrc levels, perhaps as a result of loss of some photoreceptors in the DHA/IVT iron group (FIG. 9). The mRNA levels of antioxidants solute carrier family 7 member 11 (SLC7A11), glutathione peroxidase 4 (GPX4), glutathione S-transferase isoform m1(GSTm1), glutathione synthesis (GSS), catalase (Cat), heme oxygenase 1 (Hmox1), and superoxide dismutase 1 (Sod1) were measured to investigate oxidative stress. […] The mRNA levels of IL1β, IL6 and cluster of differentiation 68 (Cd68) were detected to investigate the retinal inflammation. […] The mRNA levels of Glutathione-synthase (GSS) and IL6 were not increased by IVT iron in mice on either diet (FIG. 9).
Neural retina tissues were isolated as previously described (e.g., M Hadziahmetovic et al. Age-dependent retinal iron accumulation and degeneration in hepcidin knockout mice. Investigative ophthalmology & visual science. Jan. 5, 2011;52(1):109-18).Gene expression changes in the neural retina and purified RPE cells were evaluated. Gapdh was used as an endogenous control. […]

[2] = test system: carboxyethyl pyrrole (CEP); test: Immunolabelling for CEP on cryosections; settings: 1 week after injection, 4 weeks diet
Method: Iron-catalyzed peroxidation of phospholipids containing DHA leads to unique carboxyethyl pyrrole (CEP) adducts not formed from any other PUFA. CEP has been detected by IHC in human AMD eyes and mouse retinas, including those from mice receiving IVT iron. To test whether D-DHA could protect against iron-induced CEP formation, mice were fed with D-DHA or DHA for 4 weeks prior to IVT injection of iron or control saline.
Cryosections were prepared at 4h and 1 week after injections. Co-labelling for CEP and rhodopsin was conducted to assess and localize CEP. […] At 1 week after injection, immunolabelling for CEP localized to RPE and infiltrating myeloid cells in IVT iron injected eyes of DHA fed mice, likely originationg from phagocytosed oxidized photoreceptor outer segments (FIG. 8B). Immunolabelling for CEP was undetected in D-DHA fed mice. […] Quantification of pixel density for CEP and L-Ft label was conducted using ImageJ software (FIGS. 8F and 8G), and quantitatively verified the results described above.
Immunofluorescence on cryosections was conducted as described previously. […] Images were acquired with an epifluorescence microscope (Nikon 80i microscope, Nikon, Tokyo, Japan), and analyzed using NIS-Elements (Nikon).

[3] = test system: retinal function; test: Electroretinography
Method: Electroretinography was conducted on mice fed with D-DHA or natural DHA for 4 weeks to evaluate retinal function. […] Thus, using this measure, incorporation of D-DHA had no impact on retinal function (FIG. 7A). […] Toluidine blue staining was performed on plastic sections to examine retinal histology.
Mice were dark adapted overnight and anesthetized with the same procedure. The electroretinograms were recorded with an Espion E3 system (Diagnosys LLC, Lowell, MA) with a ganzfeld Color Dome stimulator as previously described. All electroretinography were performed at the same time of day.

[4] = D-DHA substitution rates in plasma, red blood cells and retina of mice on 0.5% w/w D-DHA diet; settings: for doubling interval of D-DHA substitution rate: first order kinetics
Source text: Mature adult C57BL/6J mice were fed for 78 days with a customized rodent diet containing 0.5% w/w D-DHA and no natural DHA. The animals were sacrificed, and plasma, red blood cells and retinal tissues were dissected at study Days 8, 19, 38, 78, (six animals per time point, 3 males + 3 females). D-DHA + DHA were extracted from samples and derivatized into methyl esters with a mixture of heptane/ toluene (63:37 by volume), and methanol/ dimethoxypropane/ sulfuric acid (85:11:4 by volume) by gentle shaking at 80° C. for 2 hours, followed by separation and drying down of the organic phase under nitrogen. D-DHA + DHA methyl esters were structurally identified and quantified by gas chromatography coupled with a tandem mass spectrometry detector and D-DHA substitution levels (in percent of total DHA) were calculated. The results are represented in Table 1 and graphed in FIG. 1.

In the case of `[2H]C([2H])(/C=C\CC)/C=C\C([2H])([2H])/C=C\C([2H])([2H])/C=C\C([2H])([2H])/C=C\C([2H])([2H])/C=C\CCC(=O)OCC` [D-DHA, 6,6,9,9,12,12,15,15,18,18-D10-(4Z,7Z,10Z,13Z,16Z, 19Z)-docosa 4,7,10,13,16, 19-hexaenoic acid ethyl ester], the “upregulation of antioxidants mRNA (Slc7a11, Gpx4, GSTm1, Cat, Hmox1, Sod1)” value ([1]; D-DHA/IVT iron eyes) was “prevented”, the “mRNA levels of Rho, Opn1sw (photoreceptor genes)” value ([1]; D-DHA/IVT iron relative to IVT saline controls) was “no change” and the “mRNA levels of IL1β and Cd68” value ([1]; D-DHA/IVT iron retinas) was “not increased”. The “immunolabelling for CEP” value [2] was “undetected”, the “rod-b wave, rod-a wave and cone-b wave amplitudes” value ([3]; 4 weeks diet, mice not given IVT injections, compared to natural DHA) was “no significant difference” and the “rod b-wave, rod a-wave and cone-b wave amplitudes” value ([3]; iron injected eyes, ≥50% retinal D-DHA, 1 week after injection, compared to DHA plus iron) was “marked protection”. For the same molecule, the “D-DHA substitution levels (in percent of total DHA)” value ([4]; neuroretina, day 8) was 20.89%, the “D-DHA substitution levels (in percent of total DHA)” value ([4]; neuroretina, day 19) was 42.94% and the “D-DHA substitution levels (in percent of total DHA)” value ([4]; neuroretina, day 38) was 70.74%. The “D-DHA substitution levels (in percent of total DHA)” value ([4]; neuroretina, day 78) was 92.10%, the “D-DHA substitution levels (in percent of total DHA)” value ([4]; plasma, day 8 after first exposure, 0.5% w/w D-DHA diet) was 84.78% and the “D-DHA substitution levels (in percent of total DHA)” value ([4]; plasma, day 19) was 94.17%. For the same molecule, the “D-DHA substitution levels (in percent of total DHA)” value ([4]; plasma, day 38) was 97.34%, the “D-DHA substitution levels (in percent of total DHA)” value ([4]; plasma, day 78) was 98.43% and the “doubling interval of D-DHA substitution rate” value (from here on “doubling interval”) ([4]; plasma) was 6 to 7 days. For the same molecule, the “D-DHA substitution levels (in percent of total DHA)” value ([4]; red blood cells, day 8) was 48.24%, the “D-DHA substitution levels (in percent of total DHA)” value ([4]; red blood cells, day 19) was 72.84% and the “D-DHA substitution levels (in percent of total DHA)” value ([4]; red blood cells, day 38) was 94.12%. The “D-DHA substitution levels (in percent of total DHA)” value ([4]; red blood cells, day 78) was 96.65%, the “doubling interval” value ([4]; red blood cells) was about 10 days and the “doubling interval” value ([4]; retina) was 20 to 22 days.
